Where two headings read alike, the source gives them in different places.
Experiments:
Type in all cases: biochemical
[1] = molecular target: TYK2 (Homo sapiens (Human), UniProt P29597); assay: JAK Caliper Enzyme Assay at 1 mM ATP, TYK2
Outline: (§1)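 Human recombinant kinase domain + fluorescently labelled synthetic peptide, 1 mM ATP, RT; enzyme level/time set for 20–30% phosphorylation. EDTA stop. LabChip separation, peak-height % conversion, % effect vs plate controls.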

[2] = molecular target: JAK1 (Homo sapiens (Human), UniProt P23458); assay: JAK Caliper Enzyme Assay at 1 mM ATP, JAK1
Outline: (§2)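 IC50 (nM) derived from percent conversion of fluorescently labelled peptide, measured by Caliper LabChip mobility-shift separation after EDTA stop. Each JAK family kinase domain (human, recombinant) run at 1 mM ATP and room temperature, conditions set to 20-30% product; DMSO wells define uninhibited baseline.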

[3] = molecular target: JAK2 (Homo sapiens (Human), UniProt O60674); assay: JAK Caliper Enzyme Assay at 1 mM ATP, JAK2
Outline: as §1

[4] = molecular target: JAK3 (Homo sapiens (Human), UniProt P52333); assay: JAK Caliper Enzyme Assay at 1 mM ATP, JAK3
Outline: as §2

Sequence of JAK2 (O60674 849-1124): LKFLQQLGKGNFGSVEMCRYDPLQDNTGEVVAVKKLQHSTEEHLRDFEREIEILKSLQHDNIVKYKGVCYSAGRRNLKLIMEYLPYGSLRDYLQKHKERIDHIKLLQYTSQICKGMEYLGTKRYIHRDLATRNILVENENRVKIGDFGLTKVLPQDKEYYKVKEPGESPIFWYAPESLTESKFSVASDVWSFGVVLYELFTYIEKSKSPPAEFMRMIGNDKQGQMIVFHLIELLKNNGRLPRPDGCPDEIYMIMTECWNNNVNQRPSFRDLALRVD
Sequence of TYK2 (P29597 897-1176): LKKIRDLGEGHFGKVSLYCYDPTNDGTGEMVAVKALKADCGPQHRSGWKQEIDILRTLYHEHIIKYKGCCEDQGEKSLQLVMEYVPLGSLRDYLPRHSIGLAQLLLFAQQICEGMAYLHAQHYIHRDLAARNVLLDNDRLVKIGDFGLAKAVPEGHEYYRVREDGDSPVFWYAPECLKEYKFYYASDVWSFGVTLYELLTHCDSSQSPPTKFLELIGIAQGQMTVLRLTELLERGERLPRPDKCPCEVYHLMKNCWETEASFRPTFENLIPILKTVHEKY
Sequence of JAK1 (P23458 875-1153): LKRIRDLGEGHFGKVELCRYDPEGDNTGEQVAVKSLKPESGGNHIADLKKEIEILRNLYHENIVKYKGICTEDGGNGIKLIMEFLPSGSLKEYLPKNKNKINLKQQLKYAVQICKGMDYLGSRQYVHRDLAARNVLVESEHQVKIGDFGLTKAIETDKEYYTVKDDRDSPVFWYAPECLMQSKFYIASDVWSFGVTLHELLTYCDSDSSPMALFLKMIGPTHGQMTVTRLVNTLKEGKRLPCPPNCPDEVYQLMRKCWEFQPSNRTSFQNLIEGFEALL
Sequence of JAK3 (P52333 822-1111): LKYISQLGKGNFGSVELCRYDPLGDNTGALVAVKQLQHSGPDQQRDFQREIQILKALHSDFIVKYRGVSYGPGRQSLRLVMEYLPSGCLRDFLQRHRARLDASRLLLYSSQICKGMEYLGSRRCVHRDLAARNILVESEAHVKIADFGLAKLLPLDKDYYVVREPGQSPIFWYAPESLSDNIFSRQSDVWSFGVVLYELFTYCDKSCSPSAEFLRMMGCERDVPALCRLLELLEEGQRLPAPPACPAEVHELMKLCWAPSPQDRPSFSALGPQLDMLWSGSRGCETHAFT

Structure (SMILES) | IC50 [1] [nM] | IC50 [2] [nM] | IC50 [3] [nM] | IC50 [4] [nM] | IC50 ([1]; JAK Caliper enzyme assay) [nM] | IC50 ([2]; JAK Caliper enzyme assay) [nM] | IC50 ([3]; JAK Caliper enzyme assay) [nM] | IC50 ([4]; JAK Caliper enzyme assay) [nM]
N#CC[C@]1(n2ccc(-c3nc(-c4c[nH]nc4N)cc4ncccc34)n2)C[C@@H](C#N)C1 [Example 97, cis-3-{3-[7-(3-amino-1H-pyrazol-4-yl)-1,6-naphthyridin-5-yl]-1H-pyrazol-1-yl}-3-(cyanomethyl)cyclobutanecarbonitrile] | 5 | 12 | 6 | 735 | – | – | – | –
Cc1nc(-c2cc(-c3cnn([C@]4(CC#N)C[C@@H](C#N)C4)n3)c3cccnc3c2)ccc1O [Example 382, trans-3-(cyanomethyl)-3-{4-[7-(5-hydroxy-6-methylpyridin-2-yl)quinolin-5-yl]-2H-1,2,3-triazol-2-yl}cyclobutanecarbonitrile] | – | – | – | – | 141 | 3060 | 1020 | > 10000
N#CCC1(n2ncc(-c3cc(-c4ccc(C(N)=O)cn4)cc4ncccc34)n2)CC(C#N)C1 (stereo not drawn) [Example 352, 6-(5-{2-[cis-3-cyano-1-(cyanomethyl)cyclobutyl]-2H-1,2,3-triazol-4-yl}quinolin-7-yl)pyridine-3-carboxamide] | 27 | 825 | 106 | > 10000 | – | – | – | –
N#CC[C@]1(n2ncc(-c3cc(-c4cc(CO)ns4)cc4ncccc34)n2)C[C@H](C#N)C1 [Example 345, trans-3-(cyanomethyl)-3-(4-{7-[3-(hydroxymethyl)-1,2-thiazol-5-yl]quinolin-5-yl}-2H-1,2,3-triazol-2-yl)cyclobutanecarbonitrile] | 249 | 3810 | 1860 | > 10000 | – | – | – | –
C[C@]1(C#N)C[C@](CC#N)(n2ccc(-c3nc(-c4cn[nH]c4)cc4ncccc34)n2)C1 [Example 83, trans-3-(cyanomethyl)-1-methyl-3-{3-[7-(1H-pyrazol-4-yl)-1,6-naphthyridin-5-yl]-1H-pyrazol-1-yl}cyclobutanecarbonitrile] | 410 | 2240 | 2450 | > 10000 | – | – | – | –
Cn1nc(-c2cc3ncccc3c(-c3ccn([C@]4(CC#N)C[C@@H](C#N)C4)n3)n2)cc1CN [Example 71, trans-3-(3-{7-[5-(aminomethyl)-1-methyl-1H-pyrazol-3-yl]-1,6-naphthyridin-5-yl}-1H-pyrazol-1-yl)-3-(cyanomethyl)cyclobutanecarbonitrile] | 109 | 3720 | 205 | 7930 | – | – | – | –
N#CC[C@]1(n2ccc(-c3nc(-c4cnnc(N)c4)cc4ncccc34)n2)C[C@@H](C#N)C1 [Example 240, cis-3-{3-[7-(6-aminopyridazin-4-yl)-1,6-naphthyridin-5-yl]-1H-pyrazol-1-yl}-3-(cyanomethyl)cyclobutanecarbonitrile] | 48 | 1280 | 448 | > 10000 | – | – | – | –
CS(=O)(=O)N1CC(CC#N)(n2cnc(-c3cc(-c4ccn[nH]4)cc4ncccc34)n2)C1 [Example 452, [1-(methylsulfonyl)-3-{3-[7-(1H-pyrazol-5-yl)quinolin-5-yl]-1H-1,2,4-triazol-1-yl}azetidin-3-yl]acetonitrile] | – | – | – | – | 322 | 7190 | 6810 | > 10000
CS(=O)(=O)N1CC(CC#N)(n2ccc(-c3nc(-c4cnn(C(CO)CCl)c4)cc4ncccc34)n2)C1 (stereo not drawn) [Example 130, [3-(3-{7-[1-(1-chloro-3-hydroxypropan-2-yl)-1H-pyrazol-4-yl]-1,6-naphthyridin-5-yl}-1H-pyrazol-1-yl)-1-(methylsulfonyl)azetidin-3-yl]acetonitrile] | 32 | 232 | 63 | 9520 | – | – | – | –
N#CC[C@]1(n2ncc(-c3cc(-c4cc(C(N)=O)ccn4)cc4ncccc34)n2)C[C@@H](C#N)C1 [Example 354, 2-(5-{2-[trans-3-cyano-1-(cyanomethyl)cyclobutyl]-2H-1,2,3-triazol-4-yl}quinolin-7-yl)pyridine-4-carboxamide] | 7240 | > 10000 | > 10000 | > 10000 | – | – | – | –

Now from value to compound:

IC50 [1] [nM] | IC50 [2] [nM] | IC50 [3] [nM] | IC50 [4] [nM] | IC50 ([1]; JAK Caliper enzyme assay) [nM] | IC50 ([2]; JAK Caliper enzyme assay) [nM] | IC50 ([3]; JAK Caliper enzyme assay) [nM] | IC50 ([4]; JAK Caliper enzyme assay) [nM] | Structure (SMILES)
175 | 6010 | 2190 | > 10000 | – | – | – | – | N#CCC1(n2ccc(-c3nc(-c4ccnc(C(N)=O)c4)cc4ncccc34)n2)CN(CC(F)(F)F)C1 [Example 215, 4-(5-{1-[3-(cyanomethyl)-1-(2,2,2-trifluoroethyl)azetidin-3-yl]-1H-pyrazol-3-yl}-1,6-naphthyridin-7-yl)pyridine-2-carboxamide]
– | – | – | – | 330 | > 10000 | 5610 | > 10000 | CS(=O)(=O)N1CC(CC#N)(n2ncc(-c3cc(-c4cccc(CO)c4F)cc4ncccc34)n2)C1 [Example 445, [3-(4-{7-[2-fluoro-3-(hydroxymethyl)phenyl]quinolin-5-yl}-2H-1,2,3-triazol-2-yl)-1-(methylsulfonyl)azetidin-3-yl]acetonitrile]
33 | 965 | 162 | > 10000 | – | – | – | – | CS(=O)(=O)N1CC(CC#N)(n2ccc(-c3nc(-c4cnn(CCO)c4)cc4ncccc34)n2)C1 [Example 125, [3-(3-{7-[1-(2-hydroxyethyl)-1H-pyrazol-4-yl]-1,6-naphthyridin-5-yl}-1H-pyrazol-1-yl)-1-(methylsulfonyl)azetidin-3-yl]acetonitrile]
49 | 355 | 127 | > 10000 | – | – | – | – | Cn1ncc(-c2cc3ncccc3c(-c3ccn(C4(CC#N)CC(C#N)C4)n3)n2)c1N (stereo not drawn) [Example 141, trans-3-{3-[7-(5-amino-1-methyl-1H-pyrazol-4-yl)-1,6-naphthyridin-5-yl]-1H-pyrazol-1-yl}-3-(cyanomethyl)cyclobutanecarbonitrile]
156 | 8870 | 2560 | > 10000 | – | – | – | – | Cn1ccc(-c2cc3ncccc3c(-c3ccn(C4(CC#N)CN(CC(F)(F)F)C4)n3)n2)n1 [Example 55, [3-{3-[7-(1-methyl-1H-pyrazol-3-yl)-1,6-naphthyridin-5-yl]-1H-pyrazol-1-yl}-1-(2,2,2-trifluoroethyl)azetidin-3-yl]acetonitrile]
17 | 591 | 90 | 9610 | – | – | – | – | Cn1cc(-c2cc3ncccc3c(-c3ccn([C@]4(CC#N)C[C@@H](C#N)C4)n3)n2)cn1 [Example 102, trans-3-(cyanomethyl)-3-{3-[7-(1-methyl-1H-pyrazol-4-yl)-1,6-naphthyridin-5-yl]-1H-pyrazol-1-yl}cyclobutanecarbonitrile]
– | – | – | – | 292 | 5380 | 1460 | > 10000 | N#CC[C@]1(n2ncc(-c3cc(-c4cnc5c(N)nccn45)cc4ncccc34)n2)C[C@@H](C#N)C1 [Example 422, cis-3-{4-[7-(8-aminoimidazo[1,2-a]pyrazin-3-yl)quinolin-5-yl]-2H-1,2,3-triazol-2-yl}-3-(cyanomethyl)cyclobutanecarbonitrile]
424 | > 10000 | > 10000 | > 10000 | – | – | – | – | N#CC[C@]1(n2ccc(-c3nc(-c4ccnc(C(N)=O)n4)cc4ncccc34)n2)C[C@H](C#N)C1 [Example 244, 4-(5-{1-[cis-3-cyano-1-(cyanomethyl)cyclobutyl]-1H-pyrazol-3-yl}-1,6-naphthyridin-7-yl)pyrimidine-2-carboxamide]
201 | > 10000 | 5380 | > 10000 | – | – | – | – | CS(=O)(=O)N1CC(CC#N)(n2ccc(-c3cc(-c4ccc(=O)[nH]c4)cc4ncccc34)n2)C1 [Example 287, [1-(methylsulfonyl)-3-{3-[7-(6-oxo-1,6-dihydropyridin-3-yl)quinolin-5-yl]-1H-pyrazol-1-yl}azetidin-3-yl]acetonitrile]
21 | 744 | 54 | 9660 | – | – | – | – | CS(=O)(=O)N1CC(CC#N)(n2ccc(-c3nc(-c4cnn([C@H]5CCOC5)c4)cc4ncccc34)n2)C1 [Example 123, {1-(methylsulfonyl)-3-[3-(7-{1-[(3S)-tetrahydrofuran-3-yl]-1H-pyrazol-4-yl}-1,6-naphthyridin-5-yl)-1H-pyrazol-1-yl]azetidin-3-yl}acetonitrile]
9 | 332 | 45 | 4170 | – | – | – | – | N#CC[C@]1(n2ncc(-c3cc(-c4cnn(CCO)c4)cc4ncccc34)n2)C[C@H](C#N)C1 [Example 326, trans-3-(cyanomethyl)-3-(4-{7-[1-(2-hydroxyethyl)-1H-pyrazol-4-yl]quinolin-5-yl}-2H-1,2,3-triazol-2-yl)cyclobutanecarbonitrile]
41 | 583 | 119 | > 10000 | – | – | – | – | N#CC[C@]1(n2ccc(-c3nc(-c4cnn(CCO)c4)cc4ncccc34)n2)C[C@H](C#N)C1 [Example 126, trans-3-(cyanomethyl)-3-(3-{7-[1-(2-hydroxyethyl)-1H-pyrazol-4-yl]-1,6-naphthyridin-5-yl}-1H-pyrazol-1-yl)cyclobutanecarbonitrile]
19 | 379 | 235 | > 10000 | – | – | – | – | CO[C@H]1C[C@@](CC#N)(n2ccc(-c3nc(-c4cc(N)[nH]n4)cc4ncccc34)n2)C1 [Example 52, (cis-1-{3-[7-(5-amino-1H-pyrazol-3-yl)-1,6-naphthyridin-5-yl]-1H-pyrazol-1-yl}-3-methoxycyclobutyl)acetonitrile]
– | – | – | – | 30 | 452 | 148 | > 10000 | CS(=O)(=O)Nc1ccc(-c2cc(-c3cnn(C4(CC#N)CC(C#N)C4)n3)c3cccnc3c2)nc1 (stereo not drawn) [Example 375, N-[6-(5-{2-[trans-3-cyano-1-(cyanomethyl)cyclobutyl]-2H-1,2,3-triazol-4-yl}quinolin-7-yl)pyridin-3-yl]methanesulfonamide]

— US11254668B2, “Pyrazolo[1,5-A]pyrazin-4-yl and related derivatives” (Pfizer Inc., priority 2017, dated 2022)
